According to patent publication EP0623616A1, “Heterocyclic compounds and process for the preparation thereof” (EGIS GYOGYSZERGYAR RT., priority 1993, dated 1994):
Like-named read-outs stand apart in the source and are kept apart here.

Columns and labels:
[1] = system: Male rats belonging to the Spraghe Dawley strain; assay: Elevated plus maze test on rat; assay type: in vivo; conditions: for MED: p.o., minimum effective dose causing a significant increase of time spent on the open arms, rats, pretreatment 60 minutes
Description: The test was carried out with the aid of a wooden plus-shaped maze elevated to a height of 50 cm. Two arms (100 cm long and 15 cm wide) - opposite to one another - were enclosed up to a height of 40 cm along their longer sides and at the end. The other two arms were without walls (open arms). The central 15x15 cm part was open. Male rats belonging to the Spraghe Dawley strain and weighing 220 to 260 g were used as test animals. After pretreatment lasting 60 minutes the animals were placed into the central part of the maze. During the 5 minutes observation period the following parameters were recorded: • time spent on the open arms • time spent on the closed arms • number of open arm entries • number of closed arm entries.
The drug effect was expressed as percent increase of the time spent on the open arms and number of open arm entries. The minimum effective dose which caused a significant increase of the time spent on the open arms was calculated for every substance [Pelow, S., Chopin, P., File, S.E., Briley, M.:J. Neurosci. Methods 14, 149-167 (1985)].

Male Wistar rats [2] = assay: Conditioned avoidance response inhibition (shuttle box); assay type: in vivo; conditions: for Conditioned relfex ID50: rats, 50% inhibiting dose, dosing one hour before the measurement, oral
Description: The antipsychotic (neuroleptic) effect was measured by the inhibition of the learned conditioned avoidance reflex. The male Wistar rats used for the study were of 120 to 150 g body weight at the beginning of learning. A shuttle box was used as experimental device, it consisted of two parts, 24x24,5x23 cm each, separated by a wall with a 6x9 cm gate. In response to a suitable warning stimulus, in order to avoid the punishing (unconditioned) stimulus, animals within the box passed through the gate from one part to the other. The warning, i.e. conditioned stimulus (CS), a white light (1 Hz) blinking for 15 seconds, was applied at the actual place of the animal. The unconditioned stimulus (US), in form of 0,6 mA intensity electric shock, was randomly applied to the paw during the last 5 seconds of the conditioned stimulus. The animal's movement during the CS and US from one part of the box to the other was defined as avoidance and escape response, respectively. Both responses ceased the actual stimulus and stopped the trial. The time elapsed until the next trial (intertrial interval, ITI) was 15 seconds. While one experiment was carried out daily, an experiment consisted of 80 trials. Learning efficiency was expresses as percentage of the successful to the total avoidances. Effect of the neuroleptic drugs was examined in animals with stabilized conditioned reflexes and with at least 75% learning efficiency. Dosing was carried out once a week, one hour before the measurement in the shuttle box. To calculate the neuroleptic effect (50% inhibiting dose, ID₅₀), the results obtained after the treatment were compared to those obtained on the previous day (controls).

Male Wistar rats [3] = assay: Vogel test (drinking conflict test); assay type: in vivo; conditions: for MED: minimum effective dose, increase of tolerated shocks, rats, intraperitoneally half an hour before testing
Description: Male Wistar rats of 160 to 180 g body weight were kept free of food and drinking water for 24 and 48 hours, respectively. Test and carrier substances were administered intraperitoneally half an hour before testing. Animals within the experimental chamber were provided with drinking water through an inserted tube. After the animals' each twenty lapping for water the device emitted a 2 mA intensity electric shock through the drinking tube. During 5 minutes the shocks tolerated by the animals in order to quench their thirst were counted. The effect of treatment was expressed as the % increase of the tolerated shocks. The minimum effective dose (MED) was determined for each test compound [Vogel, J.R., Beer, B., Clody, D.E.:Psychopharmacologia (Berl.)21, 1(1971)].

mice [4] = assay: Effect on the spontaneous motor activity (method of Borsy et al., 10-channel Dews system); assay type: in vivo; conditions: for Mobility inhibition ID50: treated orally, 1 hour after treatment, interruptions of infrared beam within 30 minutes
Description: The test was carried out according to the method of Borsy et al. Groups consisting of 3 mice each were treated orally with different doses of the compounds to be tested 1 hour after treatment with the test compound or the vehicle the animals were placed into a 10-channel Dews system equipment. In this equipment the number of interruptions of infrared beam within 30 minutes was counted. From these date 50% inhibiting doses (IC₅₀) were determined with the aid of a line of regression [Borsy, J., Csanyi, E., Lazar, I.: Arch. Int. Pharmacodyn. 124, a (1960)].

Male Wistar rats [5] = conditions: value taken from literature (J. Med. Chem. 29(3), 363(1986); Drugs of Future 10(II), 731(1985)); cited from earlier work
mice [6] = conditions: value taken from literature (Drugs of Future 10(II), 731 (1985)); cited from earlier work
[7] = Vogel test, ratio of MED values

## 8-{4-[4-(1,2-Benzisothiazol-3-yl)-1-piperazinyl]-but-2-ynyl}-8-azaspiro[4,5]decane-7,9-dione [Example 1]
[1]; elevated plus maze, ratio of MED values
  effectiveness relative to Ritanserin: twice as effective
[1]
  MED: 2,5 mg/kg
Male Wistar rats [2]
  Conditioned relfex ID50: 30,0 mg/kg
Male Wistar rats [2]; up to an oral dose of 30 mg/kg, result in words
  influence on the conditioned avoidance response: does not influence the conditioned avoidance response
Male Wistar rats [3]; [7]
  effectiveness relative to chlorodiazepoxide: twice as effective
  times as effective as Meprobamate: 5
Male Wistar rats [3]
  MED: 5.0 mg/kg
Mice [4]; result in words
  influence on the spontaneous motor activity: does not influence the spontaneous motor activity
Mice [4]
  Mobility inhibition ID50: ineffective(>100) mg/kg

## CNC1=Nc2ccc(Cl)cc2C(c2ccccc2)=[N+]([O-])C1 [Chlorodiazepoxide]
Male Wistar rats [3]
  MED: 10.0 mg/kg
Mice [4]
  Mobility inhibition ID50: 56,0 mg/kg

## CN(C)CCCN1c2ccccc2Sc2ccc(Cl)cc21 [Chloropromazine]
Male Wistar rats [2]
  Conditioned relfex ID50: 13,2 mg/kg

## CN1C(=O)CN=C(c2ccccc2)c2cc(Cl)ccc21 [Diazepam]
Mice [4]
  Mobility inhibition ID50: 23,0 mg/kg

## O=C(CCCN1CCC(O)(c2ccc(Cl)cc2)CC1)c1ccc(F)cc1 [Haloperidol]
Male Wistar rats [2]
  Conditioned relfex ID50: 0,6 mg/kg

## CCCC(C)(COC(N)=O)COC(N)=O [Meprobamate]
[1]
  MED: >10,0 mg/kg
Male Wistar rats [3]
  MED: 25.0 mg/kg

## Cc1nc2sccn2c(=O)c1CCN1CCC(=C(c2ccc(F)cc2)c2ccc(F)cc2)CC1 [Ritanserin]
[1]
  MED: 5,0 mg/kg

## O=C1CC2(CCCC2)CC(=O)N1CCCCN1CCN(c2nsc3ccccc23)CC1 [Thiaspiron, thiaspiron]
Male Wistar rats [5]
  Conditioned relfex ID50: 10,5 mg/kg
Mice [6]
  Mobility inhibition ID50: 8,4 mg/kg
